Experimental data reported in patent publication US9399631B2, “Polyphenol proteasome inhibitors, synthesis, and methods of use” (UNIVERSITY OF SOUTH FLORIDA, priority 2003, dated 2016).
Each block holds one compound with its values, some of them ahead of it.

Tests used:
[1] = target: T1, 20S eukaryotic proteasome (Oryctolagus cuniculus, UniProt G1T4Q9); assay: Inhibition of chymotrypsin-like activity of purified eukaryotic 20S proteasome (Suc-Leu-Leu-Val-Tyr-AMC); type: biochemical, rabbit; settings: for IC50: chymotrypsin-like activity, rabbit 20S proteasome
T1 construct: purchased BOSTON BIOCHEM (Cambridge, Mass.)
T1 sequence (G1T4Q9 1-263): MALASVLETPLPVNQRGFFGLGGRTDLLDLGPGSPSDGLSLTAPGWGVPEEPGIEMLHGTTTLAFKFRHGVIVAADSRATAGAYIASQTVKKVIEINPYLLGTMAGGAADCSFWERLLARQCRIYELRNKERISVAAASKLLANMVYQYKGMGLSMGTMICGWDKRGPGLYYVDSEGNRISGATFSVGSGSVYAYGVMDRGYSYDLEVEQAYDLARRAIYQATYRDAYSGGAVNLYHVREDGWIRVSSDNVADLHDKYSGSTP
Outline: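 Purified rabbit 20S proteasome (0.02 μg) incubated with 20 μM Suc-LLVY-AMC for 30 min at 37° C in Tris-HCl pH 7.5, with or without compound. Chymotrypsin-like activity read as released AMC fluorescence (Ex 380 or 355 nm/Em 460 nm).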

[2] = system: DU145 cells; assay: Western blot of Bax and PARP in DU145 cells; type: cell-based, human; settings: 10 μM, 24 hours
Method: Cell Culture, Cell Extract Preparation, and Western Blot Assay. Human leukemia Jurkat T and prostate cancer LNCaP cells were cultured in RPMI 1640 medium supplemented with 10% fetal calf serum, 100 units/ml of penicillin, and 100 μg/ml streptomycin. Human immortalized, non-transformed NK cells (YT cell line) (38) were cultured in RPMI 1640 supplemented with 1 mM MEM sodium pyruvate solution, 0.1 mM MEM non-essential amino acids solution, 10% fetal calf serum. 100 units/ml penicillin, and 100 μg/ml streptomycin. Normal (WI-38) and simian virus 40 (SV40)-transformed (VA-13) human fibroblasts were grown in Dulbecco's modified Eagle's medium supplemented with 10% fetal calf serum, 100 units/ml of penicillin and 100 μg/ml of streptomycin. All cells were maintained at 37° C. in a humidified incubator with an atmosphere of 5% CO2. A whole cell extract was prepared in accordance with An et al. (An, B. et al. Cell Death Differ, 1998, 5:1062-75). […] The ratio of p27 or IκB-α to the corresponding actin was determined by scanning intensities of the protein bands.
Exponentially growing LNCaP and DU-145 prostate cells were harvested and the levels of Bax protein was detected by Western blot analysis (FIG. 20A). […]

Structure (SMILES): O=C(O[C@@H]1Cc2c(O)cc(O)cc2O[C@@H]1c1cc(O)c(O)c(O)c1)c1cc(O)c(O)c(O)c1 [(−)-EGCG, (−)-epigallocatechin-3-gallate, reference compound]
reversal of proteasome inhibition by SDS ([1]; 1 μM, 0.01% SDS added after 1 hour (SDS-post)): could not reverse the EGCG-mediated proteasome inhibition
inhibition of chymotrypsin-like activity ([1]; 1 μM, 5 min): 35%
inhibition of chymotrypsin-like activity ([1]; 1 μM, 30 min): 62%
inhibition of chymotrypsin-like activity ([1]; 1 μM, after 1 to 3 hours): 70-80%
inhibition of chymotrypsin-like activity ([1]; 1 μM, no SDS): up to 75%
inhibition of chymotrypsin-like activity ([1]; 1 μM, pre-incubation with 0.01% SDS for 1 hour (SDS-pre)): 10-20%
IC50 [1]: 205 nM
Bax protein levels [2]: neither (+)-EGCG nor (−)-EGCG was able to increase the levels of Bax protein

IC50 [1]: 320 nM
Structure (SMILES): O=C(N[C@@H]1Cc2c(O)cc(O)cc2O[C@@H]1c1cc(O)c(O)c(O)c1)c1cc(O)c(O)c(O)c1 [(−)-EGCG-amide, (−)-[2R,3R]-N-[5,7-Dihydroxy-2-(3,4,5-trihydroxyphenyl)-chroman-3-yl]-3,4,5-trihydroxybenzamide]

Structure (SMILES): O=C(OC1Cc2c(O)cc(O)cc2OC1c1cc(O)c(O)c(O)c1)c1cc(O)c(O)c(O)c1 (single isomer, unassigned; (+)) [(+)-EGCG]
IC50 [1]: 170 nM
Bax protein levels [2]: neither (+)-EGCG nor (−)-EGCG was able to increase the levels of Bax protein

Structure (SMILES): O=C(OC1Cc2c(O)cc(O)cc2OC1c1cc(O)c(O)c(O)c1)c1cc(O)c(O)c(O)c1 (single isomer, unassigned; (+)) [(+)-GCG]
IC50 [1]: 270 nM
